This passage reports EC50, IC50 and AC50 results from ChEMBL document CHEMBL1201862, “PubChem BioAssay data set” (2004).

The source made the active and inactive calls.

The target of assay [1] is Beta-2 adrenergic receptor (Homo sapiens, UniProt P07550). Briefly: ADRB2 activation measured by internalization – cell-based, FAP fluorogen, flow cytometry, cherry pick 1, dose response (AID 588763). Type of assay: functional. In general terms: In flow cytometry, cells or beads pass a laser one at a time.
Assay [2] addresses Beta-adrenergic receptor kinase 1 (Homo sapiens, UniProt P25098). The experiment in a line: aptamer displacement from bead-bound GRK2 – biochemical, cherry pick 1, bead flow cytometry, dose response (AID 504500).
Assay [3] in a line: cells. Type of assay: functional, cell-based.
Assay [4] has as its system HEK293. The experiment in a line: HEK293T cell viability loss, resazurin readout – resazurin fluorescence, cytotoxicity control for NF-kB activator project, SAR follow-up (AID 493251). The assay is classed as functional, cell-based.
Assay [5] can be described thus: loss of viability in HepG2 cells – cell-based, CellTiter-Glo, cherry-picked, cytotoxicity control for Shn3 inhibitor project, dose response (AID 624134). Type of assay: functional.
The target in assay [6] is T1, Serine/threonine-protein phosphatase (Candida dubliniensis (strain CD36 / CBS 7987 / NCPF 3949 / NRRLY-17841) (Yeast), UniProt B9W6M3).
T1 sequence (B9W6M3 whole entry): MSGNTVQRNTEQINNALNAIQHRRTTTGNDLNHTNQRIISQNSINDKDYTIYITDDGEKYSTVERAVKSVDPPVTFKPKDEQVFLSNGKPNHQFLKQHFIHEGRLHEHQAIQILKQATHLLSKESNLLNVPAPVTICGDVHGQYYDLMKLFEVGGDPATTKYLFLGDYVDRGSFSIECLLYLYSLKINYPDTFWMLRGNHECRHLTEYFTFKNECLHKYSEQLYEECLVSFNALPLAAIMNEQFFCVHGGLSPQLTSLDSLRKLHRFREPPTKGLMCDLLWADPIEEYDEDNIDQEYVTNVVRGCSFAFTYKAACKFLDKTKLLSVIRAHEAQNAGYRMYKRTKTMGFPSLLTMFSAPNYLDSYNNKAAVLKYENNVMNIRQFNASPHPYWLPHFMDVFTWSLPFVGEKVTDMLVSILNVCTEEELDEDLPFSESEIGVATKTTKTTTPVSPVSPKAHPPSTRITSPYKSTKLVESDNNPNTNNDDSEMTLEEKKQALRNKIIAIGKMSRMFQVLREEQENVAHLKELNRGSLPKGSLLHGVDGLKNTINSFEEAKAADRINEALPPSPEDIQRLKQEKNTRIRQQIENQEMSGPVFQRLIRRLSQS
The experiment in a line: blockers of CaCl2-induced CDRE-lacZ signaling – S. cerevisiae, luminescence, secondary, dose response (AID 2388).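 Further: yeast reporter cells carrying a calcineurin-responsive lacZ construct stimulated with calcium chloride; luminescent beta-galactosidase reporter signal in whole cells rather than isolated phosphatase activity; potency for inhibition where a drop in reporter signal means calcineurin blockade.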 The assay is classed as functional, cell-based.

Assay [7] deals with INS1. Briefly: INS-1E survival protection against cytokine death – cell-based, luminescence, retest, dose response (AID 449756).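 Further: cell death triggered by IL-1 beta plus TNF-alpha plus IFN-gamma mixture; protective hits raise ATP signal compared with cytokine alone wells.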 Type of assay: functional. As to conditions: Rattus norvegicus.
The nature of assay [8]: NIH3T3 cell viability loss – ATP luminescence, mouse fibroblasts, counter-screen, dose response (AID 2010).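 Further: cells exposed to compound for about 90 hours before reading.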 The assay is classed as functional, cell-based. For orientation: The purpose of a counterscreen is to sort out artefacts and off-target activity.
A short description of assay [9]: Trypanosoma cruzi growth suppression in host cells – NIH3T3 host cells, beta-gal luminescence, confirmation (AID 2044).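 Further: intracellular parasites grown in NIH/3T3 mouse fibroblasts as host cells; luminescent beta-galactosidase reporter signal from transgenic T. cruzi replicating inside host cells; inhibitors lower the luminescence signal.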 Type of assay: functional, cell-based.
Assay [10] is described as follows: cells. The assay is classed as functional, cell-based. This is another data set of the same source.
Assay [11] can be described thus: fluconazole-exposed Candida albicans growth modulators – fluorescence, retest, confirmation (AID 2467). The assay is classed as functional, cell-based.
Assay [12] addresses Exodeoxyribonuclease V (Escherichia coli (strain K12), UniProt P04993+P07648+P08394). The experiment in a line: RecBCD inhibition via phage-restricted bacterial growth – absorbance, V66 E. coli, mutant T4 phage, counter-screen for AddAB inhibitor project, dose response (AID 492957). The assay is classed as functional, cell-based, Escherichia coli str. K-12 substr. MG1655.
Assay [13] relates to Jurkat. The experiment in a line: SAR Analysis of small molecule inhibitors of T-cell specific antigen receptor-induced NF-kB activation in a Jurkat cell line using a luminescence assay. [Related pubchem assays (depositor defined):AID435003, AID435012, AID465]. The assay is classed as functional, cell-based. As to conditions: Homo sapiens.
Assay [14] is described as follows: reduction of Shn3 3'UTR-driven luciferase in osteoblasts – cell-based, Clone20 osteoblasts, firefly luciferase, cherry-picked, dose response (AID 624132).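 Further: firefly luciferase luminescence from reporter carrying the Shn3 3'UTR in osteoblasts.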 The assay is classed as functional.
Assay [15] in a line: Counterscreen for AddAB inhibitors: absorbance-based bacterial cell-based high throughput dose response assay for inhibitors of bacterial viability. [Related pubchem assays (depositor defined):AID435030, AID449728, AID449731, AID488942, AID488955, AID488956]. The assay is classed as functional.
Assay [16] relates to HEK293. The experiment in a line: SAR Analysis of small molecule inhibitors of T-cell specific antigen receptor-induced NF-kB activation in a HEK-293T cell line using a luminescence assay. [Related pubchem assays (depositor defined):AID435003, AID435012, AID489026]. As to conditions: Homo sapiens. Type of assay: functional, cell-based.
Assay [17] relates to Jurkat. Briefly: SAR Analysis of small molecule inhibitors of T-cell specific antigen receptor-induced NF-kB activation in a Jurkat cell line using a luminescence assay - Set 2. [Related pubchem assays (depositor defined):AID435003, AID435012, AID465]. Type of assay: functional, cell-based. As to conditions: Homo sapiens.
A short description of assay [18]: non-specific 3'UTR reporter inhibition in Clone20-Shn3RL – cell-based, Renilla luciferase, cherry-picked, counter-screen for Shn3 inhibitor project, dose response (AID 624133). The assay is classed as functional.
Assay [19] in a line: NIH-3T3 fibroblast cytotoxicity, dose response, cytotoxicity control, cell-based, fluorescence, Alamar Blue, secondary assay (AID 2327).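 Further: NIH-3T3 mouse fibroblasts cultured with fluconazole at 8 µg/mL.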 The assay is classed as functional.
The target in assay [20] is Nonstructural protein 1 (Influenza A virus, UniProt Q194T2). The assay is classed as functional, Influenza A virus (A/California/07/2009(H1N1)).
In assay [21] the target is Heat shock protein HSP 90-alpha (Homo sapiens, UniProt P07900). Type of assay: functional, organism-based.
The test system of assay [22] is HEK293. The experiment in a line: SAR Analysis of small molecule inhibitors of T-cell specific antigen receptor-induced NF-kB activation in a HEK-293T cell line using a luminescence assay - Set 2. [Related pubchem assays (depositor defined):AID435003, AID435012, AID489026]. Type of assay: functional, cell-based. As to conditions: Homo sapiens.
Assay [23] addresses ATP-dependent molecular chaperone HSP82 (Candida albicans (strain WO-1) (Yeast), UniProt C4YTQ8). Briefly: steroid-induced GRE reporter decrease in yeast – S. cerevisiae, luminescence, Hsp90 inhibitor project, dose response (AID 2400).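 Further: beta-galactosidase luminescence from glucocorticoid response element reporter as proxy for Hsp90 function; inhibitor potency where signal loss means Hsp90 inhibition.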 The assay is classed as functional, cell-based.
Assay [24] in a line: toxicity toward HepG2 liver cells – cell-based, plate reader, cherry-pick, antagonist series, cytotoxicity control, dose response (AID 743416). The assay is classed as functional.
Assay [25] in a line: blockers of bursicon-stimulated LGR2 cAMP reporter – cell-based, HEK293, CRE-luciferase reporter, cherry pick, set 2, dose response (AID 743343).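 Further: transfected cells were stimulated with diluted bursicon conditioned medium after compound addition.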 The assay is classed as functional.
Assay [26] has as its system HEK293. Briefly: cells. Type of assay: functional, cell-based. The settings on record: Homo sapiens.
Assay [27] in a line: blockade of melanocortin 4 receptor signaling – cell-based, plate reader, cherry pick, counter-screen for LGR2 antagonist project, dose response (AID 743444).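 Further: transfected HEK 293 cells stimulated with alpha-MSH peptide; potency of inhibitors of the alpha-MSH evoked signal.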 Type of assay: functional.
In assay [28] the target is T2, Nuclear receptor subfamily 0 group B member 1 (Homo sapiens, UniProt P51843).
T2 sequence (P51843 whole entry): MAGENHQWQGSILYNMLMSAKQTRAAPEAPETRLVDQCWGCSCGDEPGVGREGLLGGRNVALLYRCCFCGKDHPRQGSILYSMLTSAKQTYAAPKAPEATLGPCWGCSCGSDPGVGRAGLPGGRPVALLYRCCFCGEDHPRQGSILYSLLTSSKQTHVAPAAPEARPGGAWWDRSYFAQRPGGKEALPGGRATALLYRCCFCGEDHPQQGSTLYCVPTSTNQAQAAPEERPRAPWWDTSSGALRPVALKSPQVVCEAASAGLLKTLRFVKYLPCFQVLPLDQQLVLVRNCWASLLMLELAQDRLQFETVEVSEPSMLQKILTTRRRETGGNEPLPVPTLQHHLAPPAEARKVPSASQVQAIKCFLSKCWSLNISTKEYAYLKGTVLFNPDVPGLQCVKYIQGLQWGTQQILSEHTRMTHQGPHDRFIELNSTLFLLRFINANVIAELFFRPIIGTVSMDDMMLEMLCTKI
The experiment in a line: Luminescence-based cell-based high throughput dose response assay for inhibitors of the orphan nuclear receptor subfamily 0, group B, member 1 (DAX1; NR0B1). [Related pubchem assays (depositor defined):AID504766, AID504790]. The assay is classed as functional.

In assay [29] the target is T3, Type-1 angiotensin II receptor (Homo sapiens, UniProt P30556).
T3 sequence (P30556 whole entry): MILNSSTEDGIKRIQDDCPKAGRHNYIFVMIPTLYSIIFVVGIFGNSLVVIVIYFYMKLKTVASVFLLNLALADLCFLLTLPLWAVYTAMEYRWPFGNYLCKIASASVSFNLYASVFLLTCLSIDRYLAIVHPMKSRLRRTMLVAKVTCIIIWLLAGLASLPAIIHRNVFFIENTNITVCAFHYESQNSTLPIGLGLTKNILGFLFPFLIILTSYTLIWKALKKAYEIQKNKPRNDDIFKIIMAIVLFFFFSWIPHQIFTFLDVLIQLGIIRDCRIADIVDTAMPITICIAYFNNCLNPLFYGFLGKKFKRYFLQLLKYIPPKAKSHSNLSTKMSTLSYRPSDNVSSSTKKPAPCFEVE
The experiment in a line: antagonism of angiotensin II type 1 receptor – cell-based, uHTS hits, selectivity assay for APJ receptor antagonist project, dose response (AID 463214).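 Further: antagonist potency against angiotensin II stimulated AT1 response.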 The assay is classed as functional.

Assay [30] concerns the target DNA topoisomerase (Yersinia pestis, UniProt A0A2S9PM60). Briefly: Yersinia topoisomerase I cleavage product accumulation – biochemical, cherry-pick, dose response (AID 588525).
The target in assay [31] is Beta-galactosidase (Escherichia coli, UniProt Q8VNN2). The experiment in a line: PubChem AID 485352. The assay is classed as functional.

Sequence of ATP-dependent molecular chaperone HSP82 (C4YTQ8 whole entry): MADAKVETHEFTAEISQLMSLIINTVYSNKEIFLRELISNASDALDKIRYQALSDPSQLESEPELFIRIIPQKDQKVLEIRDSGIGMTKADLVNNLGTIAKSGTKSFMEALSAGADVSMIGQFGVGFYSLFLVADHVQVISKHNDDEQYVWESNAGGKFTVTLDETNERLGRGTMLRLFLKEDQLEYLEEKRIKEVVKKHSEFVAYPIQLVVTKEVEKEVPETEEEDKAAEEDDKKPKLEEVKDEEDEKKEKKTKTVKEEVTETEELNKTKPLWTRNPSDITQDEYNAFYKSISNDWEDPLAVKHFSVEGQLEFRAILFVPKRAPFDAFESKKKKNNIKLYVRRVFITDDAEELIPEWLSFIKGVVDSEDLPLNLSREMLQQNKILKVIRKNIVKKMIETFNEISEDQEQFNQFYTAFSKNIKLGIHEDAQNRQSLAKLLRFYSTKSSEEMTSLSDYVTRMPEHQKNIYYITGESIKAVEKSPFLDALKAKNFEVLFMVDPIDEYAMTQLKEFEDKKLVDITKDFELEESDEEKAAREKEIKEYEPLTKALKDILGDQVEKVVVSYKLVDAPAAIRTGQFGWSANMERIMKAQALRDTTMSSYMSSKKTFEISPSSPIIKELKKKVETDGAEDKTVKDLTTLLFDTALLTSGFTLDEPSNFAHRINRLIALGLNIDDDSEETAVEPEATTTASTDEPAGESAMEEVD
Sequence of Nonstructural protein 1 (Q194T2 whole entry): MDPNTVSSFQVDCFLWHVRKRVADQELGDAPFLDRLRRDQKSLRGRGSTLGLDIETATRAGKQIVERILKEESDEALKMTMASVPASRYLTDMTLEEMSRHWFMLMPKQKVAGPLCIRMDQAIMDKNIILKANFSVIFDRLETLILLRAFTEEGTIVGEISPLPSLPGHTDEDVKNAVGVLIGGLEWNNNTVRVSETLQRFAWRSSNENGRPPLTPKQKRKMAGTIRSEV
Sequence of Beta-2 adrenergic receptor (P07550 whole entry): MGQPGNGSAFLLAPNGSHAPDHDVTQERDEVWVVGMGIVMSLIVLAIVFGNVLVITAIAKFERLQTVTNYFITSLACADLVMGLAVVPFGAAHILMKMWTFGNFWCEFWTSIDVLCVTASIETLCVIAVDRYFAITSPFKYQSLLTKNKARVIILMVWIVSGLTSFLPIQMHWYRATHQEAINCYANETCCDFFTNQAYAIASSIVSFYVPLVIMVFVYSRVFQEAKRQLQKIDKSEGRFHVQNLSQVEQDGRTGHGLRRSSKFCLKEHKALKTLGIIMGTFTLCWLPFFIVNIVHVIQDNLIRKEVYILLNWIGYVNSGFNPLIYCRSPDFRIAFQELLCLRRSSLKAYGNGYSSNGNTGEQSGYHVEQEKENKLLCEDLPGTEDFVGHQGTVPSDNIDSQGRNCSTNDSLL
Sequence of Exodeoxyribonuclease V (P04993 whole entry): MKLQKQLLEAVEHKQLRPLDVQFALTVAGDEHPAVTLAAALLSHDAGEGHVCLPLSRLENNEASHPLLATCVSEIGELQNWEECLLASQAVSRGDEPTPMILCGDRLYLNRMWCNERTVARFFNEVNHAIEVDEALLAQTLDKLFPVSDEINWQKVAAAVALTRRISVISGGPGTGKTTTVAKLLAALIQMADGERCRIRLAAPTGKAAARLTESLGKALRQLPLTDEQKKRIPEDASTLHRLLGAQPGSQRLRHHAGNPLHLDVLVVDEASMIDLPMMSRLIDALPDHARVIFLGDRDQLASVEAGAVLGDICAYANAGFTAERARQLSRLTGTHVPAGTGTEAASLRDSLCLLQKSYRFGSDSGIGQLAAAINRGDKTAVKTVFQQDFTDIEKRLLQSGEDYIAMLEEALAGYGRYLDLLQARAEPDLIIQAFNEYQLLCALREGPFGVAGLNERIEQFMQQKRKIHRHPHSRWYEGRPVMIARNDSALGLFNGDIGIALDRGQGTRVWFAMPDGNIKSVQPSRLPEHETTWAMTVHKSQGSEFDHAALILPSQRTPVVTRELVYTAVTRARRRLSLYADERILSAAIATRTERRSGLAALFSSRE
Sequence of Exodeoxyribonuclease V (P07648 whole entry): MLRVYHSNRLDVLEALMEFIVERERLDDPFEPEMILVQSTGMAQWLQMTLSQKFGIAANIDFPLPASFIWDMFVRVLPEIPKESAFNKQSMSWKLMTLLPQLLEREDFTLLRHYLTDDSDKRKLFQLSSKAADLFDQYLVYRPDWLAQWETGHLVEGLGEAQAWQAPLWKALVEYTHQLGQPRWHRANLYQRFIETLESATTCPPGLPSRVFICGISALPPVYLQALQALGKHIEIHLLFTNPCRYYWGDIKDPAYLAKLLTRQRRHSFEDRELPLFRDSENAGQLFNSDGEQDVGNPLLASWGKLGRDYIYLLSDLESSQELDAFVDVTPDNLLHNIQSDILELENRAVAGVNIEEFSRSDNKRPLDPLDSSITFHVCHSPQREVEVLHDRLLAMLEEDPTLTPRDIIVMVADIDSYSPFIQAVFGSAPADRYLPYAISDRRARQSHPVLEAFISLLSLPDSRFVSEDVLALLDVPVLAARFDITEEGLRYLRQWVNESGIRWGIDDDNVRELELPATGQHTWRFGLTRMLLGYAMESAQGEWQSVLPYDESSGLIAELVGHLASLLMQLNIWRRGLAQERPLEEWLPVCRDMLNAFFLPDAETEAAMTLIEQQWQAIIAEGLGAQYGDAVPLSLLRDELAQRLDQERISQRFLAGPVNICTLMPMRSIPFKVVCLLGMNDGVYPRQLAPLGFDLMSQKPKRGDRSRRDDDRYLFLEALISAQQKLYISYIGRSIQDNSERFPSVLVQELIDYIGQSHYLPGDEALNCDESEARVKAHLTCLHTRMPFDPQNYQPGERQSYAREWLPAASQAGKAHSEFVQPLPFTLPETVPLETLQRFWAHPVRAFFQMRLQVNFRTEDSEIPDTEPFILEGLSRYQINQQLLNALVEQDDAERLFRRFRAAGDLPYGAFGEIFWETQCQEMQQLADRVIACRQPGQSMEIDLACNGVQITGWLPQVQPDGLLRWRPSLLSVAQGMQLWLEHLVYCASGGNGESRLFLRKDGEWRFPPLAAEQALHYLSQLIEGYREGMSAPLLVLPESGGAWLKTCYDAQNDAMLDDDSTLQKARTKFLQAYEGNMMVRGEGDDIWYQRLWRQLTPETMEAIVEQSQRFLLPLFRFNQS
Sequence of Exodeoxyribonuclease V (P08394 whole entry): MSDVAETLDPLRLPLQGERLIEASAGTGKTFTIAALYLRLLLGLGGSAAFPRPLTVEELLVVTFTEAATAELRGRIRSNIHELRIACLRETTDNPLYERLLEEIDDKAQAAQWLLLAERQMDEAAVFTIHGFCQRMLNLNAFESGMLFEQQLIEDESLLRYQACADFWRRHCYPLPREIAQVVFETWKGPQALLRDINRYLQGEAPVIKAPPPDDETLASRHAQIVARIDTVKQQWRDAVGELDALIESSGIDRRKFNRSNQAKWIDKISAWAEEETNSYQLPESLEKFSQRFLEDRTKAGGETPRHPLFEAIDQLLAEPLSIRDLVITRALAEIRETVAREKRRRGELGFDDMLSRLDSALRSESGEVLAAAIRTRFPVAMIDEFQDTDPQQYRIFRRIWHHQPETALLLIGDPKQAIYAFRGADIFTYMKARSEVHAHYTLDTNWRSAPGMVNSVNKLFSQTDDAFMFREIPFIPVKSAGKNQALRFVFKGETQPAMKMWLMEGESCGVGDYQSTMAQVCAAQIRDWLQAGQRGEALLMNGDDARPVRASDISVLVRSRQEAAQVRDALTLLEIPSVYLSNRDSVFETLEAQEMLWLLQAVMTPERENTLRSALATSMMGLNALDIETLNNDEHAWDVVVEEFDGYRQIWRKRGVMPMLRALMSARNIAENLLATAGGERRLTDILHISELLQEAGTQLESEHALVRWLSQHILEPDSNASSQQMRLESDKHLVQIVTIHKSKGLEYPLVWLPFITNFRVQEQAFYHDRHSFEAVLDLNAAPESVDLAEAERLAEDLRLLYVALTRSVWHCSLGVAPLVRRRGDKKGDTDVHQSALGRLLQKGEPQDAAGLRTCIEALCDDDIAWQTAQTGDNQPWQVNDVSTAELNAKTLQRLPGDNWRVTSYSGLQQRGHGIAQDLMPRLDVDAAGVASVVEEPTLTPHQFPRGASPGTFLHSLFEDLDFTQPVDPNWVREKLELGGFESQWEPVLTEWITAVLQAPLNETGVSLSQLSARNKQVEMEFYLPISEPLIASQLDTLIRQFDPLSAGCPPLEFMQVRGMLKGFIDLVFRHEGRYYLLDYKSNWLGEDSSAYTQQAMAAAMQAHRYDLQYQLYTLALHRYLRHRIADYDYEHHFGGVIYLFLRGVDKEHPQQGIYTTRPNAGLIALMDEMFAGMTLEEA
Sequence of Beta-adrenergic receptor kinase 1 (P25098 whole entry): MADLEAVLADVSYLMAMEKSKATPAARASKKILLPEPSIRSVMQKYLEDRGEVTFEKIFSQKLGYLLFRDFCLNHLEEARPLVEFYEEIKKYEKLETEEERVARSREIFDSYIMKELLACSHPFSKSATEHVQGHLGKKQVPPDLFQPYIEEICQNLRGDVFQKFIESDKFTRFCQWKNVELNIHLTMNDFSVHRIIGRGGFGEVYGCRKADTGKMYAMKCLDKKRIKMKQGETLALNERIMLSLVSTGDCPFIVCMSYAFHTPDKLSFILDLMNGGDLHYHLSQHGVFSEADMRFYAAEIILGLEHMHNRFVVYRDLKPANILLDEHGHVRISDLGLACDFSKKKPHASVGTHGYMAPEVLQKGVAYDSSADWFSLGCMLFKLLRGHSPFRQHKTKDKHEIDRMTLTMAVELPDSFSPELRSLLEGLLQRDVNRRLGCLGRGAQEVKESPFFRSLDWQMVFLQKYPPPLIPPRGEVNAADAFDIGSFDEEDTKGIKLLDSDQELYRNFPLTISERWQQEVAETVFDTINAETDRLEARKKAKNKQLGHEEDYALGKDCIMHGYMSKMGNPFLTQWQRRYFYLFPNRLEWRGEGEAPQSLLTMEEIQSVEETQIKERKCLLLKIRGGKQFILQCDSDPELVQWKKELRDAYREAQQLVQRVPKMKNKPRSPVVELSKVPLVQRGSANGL

By EC50 is commonly meant the concentration that produces a half-maximal response. In the case of `CC(=O)N1c2ccccc2C(C)(c2ccccc2)CC1(C)C` (configuration not stated), in assay [1], the EC50 is 9.29 µM (active).
For `CCCCCC(=O)Nc1cccc(C2=NOC3(C2)C[C@@H](C(N)=O)N(C(=O)c2ccc(OC)cc2)C3)c1` (some centres not stated), the EC50 in assay [2] was 4.38 µM (active).
Usually IC50 stands for the midpoint of a concentration-inhibition curve. One may read the AC50 as the midpoint of the concentration-response curve, whichever way the signal moves. As to `CCCC(=O)NC(c1ccccc1)c1ccc2cccnc2c1O` (configuration not stated), the EC50 was 6.78 µM (active) in assay [3]; > 180 µM (inactive) in assay [6]; 1.01 µM (active) in assay [8]; 0.565 µM (active) in assay [9]; > 350 µM (not active) in assay [10]; 0.463 µM (active) in assay [11]. Further, the values for the EC50 in [19] and in assay [23] were 16.6 µM (inconclusive) and > 160 µM (inactive), respectively. In addition, the IC50 is 13.6 µM (active) in assay [4] (Homo sapiens, HEK293); 8.74 µM (active) in assay [4] (hek293); > 119 µM (inactive) in assay [12]; 3.81 µM (active) in [13]; > 119 µM (inactive) in assay [15]; 7.31 µM (active) in assay [16]. The IC50 was 6.27 µM (active) in [17], 21.5 µM (active) in [20] and 10.5 µM (active) in assay [22]. For the same compound, the AC50 in assay [5] was 2.88 µM (active); in assay [7], 0.664 µM (active); in [14] it was 1.99 µM (active); in [18], 1.89 µM (active); in assay [21], 4.65 µM (active).
In the case of `Cc1ccc(-c2cnn3c(N4CCOCC4)cc(C)nc23)cc1`, the AC50 was > 52 µM (inactive) in [24], 17.4 µM (active) in [25] and 23.6 µM (active) in assay [27]. For the same compound, the IC50 in [26] and in assay [28] was > 67.5 µM (inactive) in each case.
`NC(=O)c1ccccc1NCC(=O)c1ccc(Cl)cc1`: the IC50 in assay [29] was 7.41 µM (active). In assay [30], the AC50 was 7.76 µM (active). In addition, the EC50 in [31] is > 40 µM (inactive).
